Here are results for 4 compounds from patent US9241488B2, “Azole derivative, method for producing azole derivative, and intermediate compound” (KUREHA CORPORATION, priority 2011, dated 2016).

For orientation: inhibition means the relative decrease from the control value, in per cent.

For data set [1], the system named is G.g. The experiment in a line: Anti-bacterial effect of V′ compounds on various microorganisms (plate medium), G.g. The format is cell-based. Particulars: 5 mg/L.
Data set [2] concerns Snow mold of winter wheat (Microdochium nivale). The experiment in a line: Anti-bacterial effect of V′ compounds on various microorganisms (plate medium), M.n. The format is cell-based. Particulars: 5 mg/L.
Data set [3] deals with Barley stripe (Pyrenophora graminea). Nature of the data set: Anti-bacterial effect of V′ compounds on various microorganisms (plate medium), P.g. The format is cell-based. As to conditions: 5 mg/L.
The test system of data set [4] is Wheat Septoria nodorum blotch microorganism (Phaeosphaeria nodorum). Nature of the data set: Anti-bacterial effect of V′ compounds on various microorganisms (plate medium), P.n. The format is cell-based. As to conditions: 5 mg/L.
Data set [5] has as its system Wheat leaf blight (Septoria tritici). Nature of the data set: Anti-bacterial effect of V′ compounds on various microorganisms (plate medium), S.t. The format is cell-based. As to conditions: 5 mg/L.
Data set [6] relates to Barley leaf blotch (Rhynchosporium secalis). Nature of the data set: Anti-bacterial effect of V′ compounds on various microorganisms (plate medium), R. sec. Particulars: 5 mg/L. The format is cell-based.
Data set [7] has as its system wheat-brown-rust-causing microorganisms. Nature of the data set: Controlling effect on wheat brown rust (spray, pot test). The format is in vivo, Puccinia recondita. Particulars: 1 mg/L sprayed at 1,000 L/ha, wheat NORIN No. 61, 9 to 14 days after inoculation. Put shortly: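 Two-leaf wheat (NORIN No. 61) sprayed with formulation at 1 mg/L, 1,000 L/ha, then spray-inoculated with rust spores and held 48 hours at 25° C, high humidity, then greenhouse.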

The test system of data set [8] is Rice blast (Pyricularia oryzae). The format is cell-based. Particulars: 5 mg/L.
The test system of data set [9] is Swollen rice seedling (Rhizopus oryzae). The experiment in a line: Anti-bacterial effect of V′ compounds on various microorganisms (plate medium), R.o. The format is cell-based. Particulars: 5 mg/L.
For data set [10], the system named is wheat brown rust-causing microorganisms. Nature of the data set: Controlling effect on wheat brown rust caused by seed treatment (pot test). As to conditions: 2 mg compound per 1 g wheat seeds, inoculated 21 days after seeding, evaluated 14 days after inoculation. The format is in vivo, Puccinia recondita. As to the method: An efficacy against wheat brown rust was evaluated by performing a pot test. […] The pots were kept in a greenhouse with supplying water underneath. Twenty one days after the seeding, wheat brown rust-causing microorganisms was inoculated, and the pots were stored in a humidity chamber for 2 days. The pots were kept again in a greenhouse with supplying water underneath. Fourteen days after the inoculation, a lesion degree was evaluated, and a protective value was calculated. The protective value was calculated with use of the following formula, and was defined as a wheat brown rust protective value. Protective value=(1−lesion degree in treated plot/lesion degree in untreated plot)×100(%)

In data set [11] the test system is wheat leaf blight-causing microorganisms. The experiment in a line: Anti-bacterial effect on wheat leaf blight-causing microorganisms (PDA plate, mycelial growth inhibition). The format is cell-based, Septoria tritici. As to conditions: 336 h; 1.25 mg/L in PDA plate medium, 25° C., 14 days; read-out: Growth inhibition grade.
Data set [12] deals with Rice bacterial seeding blight (Rhizopus oryzae). Nature of the data set: Anti-bacterial effect on various microorganisms (plate medium), R.o. The format is cell-based. Particulars: Rhizopus arrhizus, read-out: Growth inhibition grade R.o.
For data set [13], the system named is Wheat pink snow mold (Microdochium nivale). The experiment in a line: Anti-bacterial effect on various microorganisms (plate medium), M.n. The format is cell-based. Particulars: Microdochium nivale, read-out: Growth inhibition grade M.n.
The subject of data set [14] is wheat. Nature of the data set: Growth inhibition test for wheat caused by seed treatment (pot test). Particulars: 2 mg compound per 1 g wheat seeds, 36 days after seeding, larger index = smaller damage.
Experimental: Harmful effect (growth inhibition) to wheat was evaluated by performing a pot test. Compounds (2 mg) of the present invention and a comparative compound (2 mg) were weighed, and those compounds were each dissolved in DMSO (18 μl). Chemical thus prepared were applied to wheat seeds (1 g) in a vial, and eight wheat seeds were seeded in a pot of 80 cm^2. The seeds were cultivated in a greenhouse with supplying water underneath. 36 days after the seeding, damage (growth inhibition) was evaluated.
The damage (growth inhibition) index was calculated on the basis of the following table. As the growth inhibition index becomes larger, the damage of growth inhibition caused by the treatment of the chemicals becomes smaller.
Data set [15] relates to wheat. Nature of the data set: Harmful effect of necrosis to wheat caused by seed treatment (pot test). Particulars: 2 mg compound per 1 g wheat seeds, 31 days after seeding, smaller index = smaller harmful effect. The format is in vivo. As to the method: Thirty one days after the seeding, a degree of necrosis (necrosis area ratio) in wheat was evaluated. By using criteria shown in Table 7, necrosis indexes were calculated on the basis of the necrosis area ratio.

In the case of `OC1(Cn2cncn2)C(Cc2ccc(Cl)cc2)CCC12COCOC2` (centres unmarked) [Compound V′-d, 2-(4-chlorobenzyl)-1-(1H-1,2,4-triazole-1-ylmethyl)-7,9-dioxaspiro[4,5]decane-1-ol], the “Anti-bacterial effect index against various microorganisms G.g” value in data set [1] is reported as 5 (% Mycerial growth inhibition of 80% or higher). The “Anti-bacterial effect index against various microorganisms M.n” value in data set [2] is listed as 3 (% Mycerial growth inhibition of less than 60 to 40% or higher). The “Anti-bacterial effect index against various microorganisms P.g” value in data set [3] is listed as 5 (% Mycerial growth inhibition of 80% or higher). For the same compound, in data set [4], the “Anti-bacterial effect index against various microorganisms P.n” value is 5 (% Mycerial growth inhibition of 80% or higher). In addition, the “Anti-bacterial effect index against various microorganisms S.t” value in data set [5] is 4 (% Mycerial growth inhibition of less than 80 to 60% or higher). Besides, the “Anti-bacterial effect index against various microorganisms R. sec” value in data set [6] is given as 5 (% Mycerial growth inhibition of 80% or higher). In data set [7], the Protective value is on record as 4 (61 to 80). The “Anti-bacterial effect index against various microorganisms P.o” value in data set [8] was 5 (% Mycerial growth inhibition of 80% or higher). Also, the “Anti-bacterial effect index against various microorganisms R.o” value in data set [9] is on record as 5 (% Mycerial growth inhibition of 80% or higher). For the same compound, the “wheat brown rust protective value” in data set [10] came out at 100%.

In the case of `CC1(C)OCC2(CCC(Cc3ccc(Cl)cc3)C2(O)Cn2cncn2)CO1` (stereo not drawn) [Compound V′-a-cis, 2-(4-chlorobenzyl)-8,8-dimethyl-1-[1,2,4]triazole-1-ylmethyl-7,9-dioxaspiro[4,5]decane-1-ol], the “Anti-bacterial effect index against various microorganisms G.g” value in data set [1] was 5 (% Mycerial growth inhibition of 80% or higher). Besides, the “Anti-bacterial effect index against various microorganisms M.n” value in data set [2] is 5 (% Mycerial growth inhibition of 80% or higher). In addition, in data set [3], the “Anti-bacterial effect index against various microorganisms P.g” value was 5 (% Mycerial growth inhibition of 80% or higher). Besides, the “Anti-bacterial effect index against various microorganisms P.n” value in data set [4] is recorded as 5 (% Mycerial growth inhibition of 80% or higher). Also, the “Anti-bacterial effect index against various microorganisms S.t” value in data set [5] is on record as 5 (% Mycerial growth inhibition of 80% or higher). Moreover, in [6], the “Anti-bacterial effect index against various microorganisms R. sec” value is given as 5 (% Mycerial growth inhibition of 80% or higher). Also, in [8], the “Anti-bacterial effect index against various microorganisms P.o” value is 5 (% Mycerial growth inhibition of 80% or higher). In [11], the inhibition at 1.25 µg/mL was > 80%. Besides, the “Anti-bacterial effect index against various microorganisms R.o” value in data set [9] is reported as 5 (% Mycerial growth inhibition of 80% or higher).

As to `CC1OCC2(CCC(Cc3ccc(Cl)cc3)C2(O)Cn2cncn2)CO1` (centres unmarked) [Compound V′-e, 2-(4-chlorobenzyl)-8-methyl-1-(1H-1,2,4-triazole-1-ylmethyl)-7,9-dioxaspiro[4,5]decane-1-ol], the “Anti-bacterial effect index against various microorganisms G.g” value in [1] is reported as 5 (% Mycerial growth inhibition of 80% or higher). Moreover, the “Anti-bacterial effect index against various microorganisms M.n” value in [2] is listed as 5 (% Mycerial growth inhibition of 80% or higher). The “Anti-bacterial effect index against various microorganisms P.g” value in [3] is listed as 5 (% Mycerial growth inhibition of 80% or higher). For the same compound, the “Anti-bacterial effect index against various microorganisms P.n” value in data set [4] is given as 5 (% Mycerial growth inhibition of 80% or higher). Also, the “Anti-bacterial effect index against various microorganisms S.t” value in [5] is given as 5 (% Mycerial growth inhibition of 80% or higher). Moreover, the “Anti-bacterial effect index against various microorganisms R. sec” value in data set [6] is on record as 5 (% Mycerial growth inhibition of 80% or higher). Moreover, in [8], the “Anti-bacterial effect index against various microorganisms P.o” value was 5 (% Mycerial growth inhibition of 80% or higher). The inhibition at 1.25 µg/mL in data set [11] was > 80%. Moreover, in data set [9], the “Anti-bacterial effect index against various microorganisms R.o” value is on record as 5 (% Mycerial growth inhibition of 80% or higher). The “wheat brown rust protective value” in [10] worked out at 100%.

Regarding `CC1(C)CC[C@H](Cc2ccc(Cl)cc2)[C@@]1(O)Cn1cncn1` (racemic) [Compound (1), reference compound], the results for the inhibition at 1.25 µg/mL in [12] (1.25 mg/L), in data set [13] (1.25 mg/L) and in data set [11] were 60 to 80%, 20 to 40% and 60 to 80%, respectively. The inhibition at 5 µg/mL in data set [12] (5 mg/L) and in data set [13] (5 mg/L) was > 80% in each case. In addition, in data set [7], the Protective value was 3 (41 to 60). Besides, in data set [14], the “damage (growth inhibition) index” value is reported as 2 (Less than 60% but 40% or more). For the same compound, in [15], the necrosis index is 1 (1% or more but less than 5%). In addition, the “wheat brown rust protective value” in [10] is listed as 95%.
